Test results as given in ChEMBL document CHEMBL5727603 (2020).

Molecular target: Rho-associated protein kinase 2 (Homo sapiens, UniProt O75116)
Test: Binding Assay: ROCK-II inhibitory activity can be measured using the ROCK-II Assay Kit (Molecular Devices, inc.; Sunnyvale, Calif.).

Chain of Rho-associated protein kinase 2 (O75116 whole entry): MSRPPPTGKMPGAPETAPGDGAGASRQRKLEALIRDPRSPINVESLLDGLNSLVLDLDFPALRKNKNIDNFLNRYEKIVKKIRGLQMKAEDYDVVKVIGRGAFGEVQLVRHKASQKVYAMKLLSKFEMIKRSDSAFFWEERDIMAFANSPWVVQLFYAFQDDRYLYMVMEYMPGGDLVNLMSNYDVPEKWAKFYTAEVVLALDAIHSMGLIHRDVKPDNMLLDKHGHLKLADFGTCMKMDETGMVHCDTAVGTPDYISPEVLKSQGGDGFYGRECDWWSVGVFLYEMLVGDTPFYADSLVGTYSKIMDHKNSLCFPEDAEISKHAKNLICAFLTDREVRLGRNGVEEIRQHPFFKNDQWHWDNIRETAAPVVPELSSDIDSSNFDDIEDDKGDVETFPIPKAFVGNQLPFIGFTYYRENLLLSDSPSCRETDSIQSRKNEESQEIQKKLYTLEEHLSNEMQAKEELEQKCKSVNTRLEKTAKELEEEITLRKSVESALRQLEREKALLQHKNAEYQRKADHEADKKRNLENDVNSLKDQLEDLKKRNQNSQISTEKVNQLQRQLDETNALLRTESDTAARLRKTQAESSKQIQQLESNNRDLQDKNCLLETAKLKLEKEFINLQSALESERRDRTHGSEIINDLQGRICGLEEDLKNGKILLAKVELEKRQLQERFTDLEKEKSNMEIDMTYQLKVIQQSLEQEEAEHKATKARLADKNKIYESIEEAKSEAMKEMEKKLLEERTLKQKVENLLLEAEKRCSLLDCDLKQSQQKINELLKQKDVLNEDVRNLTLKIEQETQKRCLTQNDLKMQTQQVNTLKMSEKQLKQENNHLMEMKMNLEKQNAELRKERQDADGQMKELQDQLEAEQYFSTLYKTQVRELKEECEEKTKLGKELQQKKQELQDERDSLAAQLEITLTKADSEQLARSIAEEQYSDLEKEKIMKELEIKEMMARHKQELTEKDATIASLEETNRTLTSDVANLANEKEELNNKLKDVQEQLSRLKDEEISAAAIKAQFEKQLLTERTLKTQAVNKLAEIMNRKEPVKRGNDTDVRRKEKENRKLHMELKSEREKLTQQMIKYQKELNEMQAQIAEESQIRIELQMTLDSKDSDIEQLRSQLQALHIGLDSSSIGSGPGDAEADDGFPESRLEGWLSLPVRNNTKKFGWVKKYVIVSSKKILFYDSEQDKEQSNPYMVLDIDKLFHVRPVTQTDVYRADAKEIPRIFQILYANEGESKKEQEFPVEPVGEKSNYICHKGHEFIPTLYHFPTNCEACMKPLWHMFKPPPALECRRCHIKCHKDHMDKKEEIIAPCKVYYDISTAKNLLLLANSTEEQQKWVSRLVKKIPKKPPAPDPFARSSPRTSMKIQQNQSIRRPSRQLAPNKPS

IC50: 8.3 µM
Structure (SMILES): O=C(Nc1ccccc1-c1nc(Nc2ccc3[nH]ncc3c2)c2ccccc2n1)c1ccccn1
